For test [1], the target named is Recombinant Human NF-Kappab-Inducing Kinase (NIK/MAP3K14) (Homo sapiens, UniProt Q99558). The test is described as follows: Inhibition of auto-phosphorylation of recombinant human NIK/MAP3K14 (AlphaScreen). In kind it is biochemical. Conditions: NIK/MAP3K14 auto-phosphorylation, 5 microM ATP, 1 nM enzyme, 2 h at 25° C.; average of values; read-out: Assay 1 IC50. An outline of the steps:
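AlphaScreen read-out used anti-phospho-IKK Ser176/180 antibody after 2 h, 25 °C incubation of compound, 1 nM GST-NIK and 5 µM ATP (final DMSO 0.7%). Percent inhibition referenced to high (enzyme) and low (no enzyme, no ATP) controls; sigmoidal curve fitting gave IC50.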
(In general: Alpha assays give light when donor and acceptor beads are brought close together.)

For test [2], the system named is p-IKKα levels in L363 (NIK translocated multiple myeloma) cells. The test is described as follows: Effect of compounds on p-IKKα levels in L363 cells (AlphaLISA SureFire Ultra). It counts as cell-based. Conditions: Homo sapiens, L-363; L363 cells, BAFF stimulated, MG132, 6 h; average of values; read-out: Assay 2 IC50. An outline of the steps: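 Phospho-IKKα (Ser 176/180) was quantified by AlphaLISA in lysed L363 cells after 6 h compound exposure (0.3% DMSO, 11 points, 1:3) alongside 250 ng/ml BAFF and 10 uM MG132, following overnight BAFF priming in low-serum DMEM. Duplicate curves were scaled between BAFF/DMSO/MG132 and unstimulated DMSO wells, then fitted sigmoidally for IC50.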

Recombinant Human NF-Kappab-Inducing Kinase (NIK/MAP3K14), sequence (Q99558 whole entry): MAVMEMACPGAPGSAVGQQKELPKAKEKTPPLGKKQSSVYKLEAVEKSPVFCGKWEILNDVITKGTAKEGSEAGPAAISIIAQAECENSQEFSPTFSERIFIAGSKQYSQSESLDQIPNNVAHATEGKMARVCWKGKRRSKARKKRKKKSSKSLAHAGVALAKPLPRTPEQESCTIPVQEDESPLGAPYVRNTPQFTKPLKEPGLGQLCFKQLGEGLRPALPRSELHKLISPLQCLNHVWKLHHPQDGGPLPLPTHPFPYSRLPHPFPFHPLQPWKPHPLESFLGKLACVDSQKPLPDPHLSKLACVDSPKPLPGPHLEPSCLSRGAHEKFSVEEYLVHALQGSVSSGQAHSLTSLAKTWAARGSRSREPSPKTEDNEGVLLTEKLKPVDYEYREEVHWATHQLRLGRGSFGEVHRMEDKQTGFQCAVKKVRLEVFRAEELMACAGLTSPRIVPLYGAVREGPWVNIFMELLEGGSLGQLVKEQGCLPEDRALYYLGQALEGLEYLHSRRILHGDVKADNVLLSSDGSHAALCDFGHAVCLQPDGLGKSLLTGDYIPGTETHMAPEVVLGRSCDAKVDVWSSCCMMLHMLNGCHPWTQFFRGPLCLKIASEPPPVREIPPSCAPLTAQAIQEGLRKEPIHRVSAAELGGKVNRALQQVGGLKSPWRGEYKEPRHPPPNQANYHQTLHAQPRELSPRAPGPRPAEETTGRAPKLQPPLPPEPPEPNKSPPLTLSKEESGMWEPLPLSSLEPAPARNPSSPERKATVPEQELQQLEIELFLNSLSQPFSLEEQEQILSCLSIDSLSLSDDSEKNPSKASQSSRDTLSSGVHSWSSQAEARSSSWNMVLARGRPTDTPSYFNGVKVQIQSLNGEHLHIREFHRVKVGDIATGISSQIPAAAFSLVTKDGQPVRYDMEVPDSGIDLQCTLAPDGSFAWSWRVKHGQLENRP

Turning to `Cc1ncc2cc(-c3cccc(-c4cc([C@]5(O)CCN(C)C5=O)on4)c3)ccn12` [Example 60, (R)-3-hydroxy-1-methyl-3-(3-(3-(3-methylimidazo[1,5-a]pyridin-7-yl)phenyl)isoxazol-5-yl)pyrrolidin-2-one], the IC50 in test [1] and in test [2] was more than 501 nM each time.
Take `CN1CC[C@@](O)(c2cc(-c3cccc(-c4cnc5cnccn45)c3)no2)C1=O` [Example 61, (R)-3-Hydroxy-3-(3-(3-(imidazo[1,2-a]pyrazin-3-yl)phenyl)isoxazol-5-yl)-1-methylpyrrolidin-2-one]: the IC50 (commonly the concentration needed to halve the response being measured) is 100 to 500 nM in test [1] and more than 501 nM in test [2].
The like results for `CN1CC[C@@](O)(c2cc(-c3cccc(-c4ccc5ncn(C)c5c4)c3)no2)C1=O` [Example 62, (R)-3-Hydroxy-1-methyl-3-(3-(3-(1-methyl-1H-benzo[d]imidazol-6-yl)phenyl)isoxazol-5-yl)pyrrolidin-2-one] were, in that order, more than 501 nM and more than 501 nM.
The like results for `Cc1nc2cc(-c3cccc(-c4cc([C@]5(O)CCN(C)C5=O)on4)c3)ccc2o1` [Example 63, (R)-3-Hydroxy-1-methyl-3-(3-(3-(2-methylbenzo[d]oxazol-5-yl)phenyl)isoxazol-5-yl)pyrrolidin-2-one] were, in that order, more than 501 nM and more than 501 nM.
On the same counts, the results for `CN1CC[C@@](O)(c2cc(-c3cccc(-c4ccn5ncccc45)c3)no2)C1=O` [Example 64, (R)-3-Hydroxy-1-methyl-3-(3-(3-(pyrrolo[1,2-b]pyridazin-5-yl)phenyl)isoxazol-5-yl)pyrrolidin-2-one] are more than 501 nM and more than 501 nM.
Turning to `Cc1cn2nc(-c3cccc(-c4cc([C@]5(O)CCN(C)C5=O)on4)c3)ccc2n1` [Example 65, (R)-3-Hydroxy-1-methyl-3-(3-(3-(2-methylimidazo[1,2-b]pyridazin-6-yl)phenyl)isoxazol-5-yl)pyrrolidin-2-one], the IC50 in test [1] and in test [2] was more than 501 nM each time.
On to `CN1CC[C@@](O)(c2cc(-c3cccc(-c4ccc5occc5n4)c3)no2)C1=O` [Example 66, (R)-3-(3-(3-(Furo[3,2-b]pyridin-5-yl)phenyl)isoxazol-5-yl)-3-hydroxy-1-methylpyrrolidin-2-one], for which the IC50 in test [1] and in test [2] was more than 501 nM each time.
For `CN1CC[C@@](O)(c2cc(-c3cccc(-c4ccn5cncc5c4)c3)no2)C1=O` [Example 67, (R)-3-Hydroxy-3-(3-(3-(imidazo[1,5-a]pyridin-7-yl)phenyl)isoxazol-5-yl)-1-methylpyrrolidin-2-one], the IC50 in test [1] is 100 to 500 nM; in test [2], more than 501 nM.
The like results for `CN1CC[C@@](O)(c2cc(-c3cccc(-c4ccn5nccc5n4)c3)no2)C1=O` [Example 68, (R)-3-Hydroxy-1-methyl-3-(3-(3-(pyrazolo[1,5-a]pyrimidin-5-yl)phenyl)isoxazol-5-yl)pyrrolidin-2-one] were, in that order, more than 501 nM and more than 501 nM.
The like results for `CN1CC[C@@](O)(c2cc(-c3cccc(-c4ccc5ncoc5c4)c3)no2)C1=O` [Example 69, (R)-3-(3-(3-(Benzo[d]oxazol-6-yl)phenyl)isoxazol-5-yl)-3-hydroxy-1-methylpyrrolidin-2-one] were, in that order, more than 501 nM and more than 501 nM.
On the same counts, the results for `CN1CC[C@@](O)(c2cc(-c3cccc(-c4cn5ccnc5cn4)c3)no2)C1=O` [Example 70, (R)-3-Hydroxy-3-(3-(3-(imidazo[1,2-a]pyrazin-6-yl)phenyl)isoxazol-5-yl)-1-methylpyrrolidin-2-one] are more than 501 nM and more than 501 nM.
Turning to `CN1CC[C@@](O)(c2cc(-c3cccc(-c4ccc5nccn5c4)c3)no2)C1=O` [Example 71, (R)-3-Hydroxy-3-(3-(3-(imidazo[1,2-a]pyridin-6-yl)phenyl)isoxazol-5-yl)-1-methylpyrrolidin-2-one], the IC50 in test [1] and in test [2] was more than 501 nM in each case.
Turning to `CN1CC[C@@](O)(c2cc(-c3cccc(-c4ncnc5sccc45)c3)no2)C1=O` [Example 72, (R)-3-Hydroxy-1-methyl-3-(3-(3-(thieno[2,3-d]pyrimidin-4-yl)phenyl)isoxazol-5-yl)pyrrolidin-2-one], the IC50 in test [1] and in test [2] was more than 501 nM in each case.
With `CCc1c[nH]c2ncnc(-c3cccc(-c4cc([C@]5(O)CCN(C)C5=O)on4)c3)c12` [Example 73, (R)-3-(3-(3-(5-Ethyl-7H-pyrrolo[2,3-d]pyrimidin-4-yl)phenyl)isoxazol-5-yl)-3-hydroxy-1-methylpyrrolidin-2-one], the IC50 in test [1] and in test [2] was more than 501 nM each time.
As for `CN1CC[C@@](O)(c2cc(-c3cccc(-c4ccc5nnc(N)n5c4)c3)no2)C1=O` [Example 74, (R)-3-(3-(3-(3-Amino-[1,2,4]triazolo[4,3-a]pyridin-6-yl)phenyl)isoxazol-5-yl)-3-hydroxy-1-methylpyrrolidin-2-one], the IC50 in test [1] and in test [2] was more than 501 nM throughout.
In the case of `CN1CC[C@@](O)(c2cc(-c3cccc(-c4cc5c[nH]nc5cn4)c3)no2)C1=O` [Example 75, (R)-3-(3-(3-(2H-pyrazolo[3,4-c]pyridin-5-yl)phenyl)isoxazol-5-yl)-3-hydroxy-1-methylpyrrolidin-2-one], the IC50 was 100 to 500 nM in test [1] and more than 501 nM in test [2].
The like results for `COc1cc(-c2cccc(-c3cc([C@]4(O)CCN(C)C4=O)on3)c2)cc2c1cnn2C` [Example 76, (R)-3-Hydroxy-3-(3-(3-(4-methoxy-1-methyl-1H-indazol-6-yl)phenyl)isoxazol-5-yl)-1-methylpyrrolidin-2-one] were, in that order, 100 to 500 nM and more than 501 nM.
On the same counts, the results for `CN1CC[C@@](O)(c2cc(-c3cccc(-c4cccc5[nH]ccc45)c3)no2)C1=O` [Example 77, (R)-3-(3-(3-(1H-Indol-4-yl)phenyl)isoxazol-5-yl)-3-hydroxy-1-methylpyrrolidin-2-one] are more than 501 nM and more than 501 nM.
On the same counts, the results for `CN1CC[C@@](O)(c2cc(-c3cccc(-c4ccc5cnn(C)c5n4)c3)no2)C1=O` [Example 78, (R)-3-Hydroxy-1-methyl-3-(3-(3-(1-methyl-1H-pyrazolo[3,4-b]pyridin-6-yl)phenyl)isoxazol-5-yl)pyrrolidin-2-one] are 100 to 500 nM and more than 501 nM.
As to `Cc1cn2cc(-c3cccc(-c4cc([C@]5(O)CCN(C)C5=O)on4)c3)ccc2n1` [Example 79, (R)-3-Hydroxy-1-methyl-3-(3-(3-(2-methylimidazo[1,2-a]pyridin-6-yl)phenyl)isoxazol-5-yl)pyrrolidin-2-one], the IC50 in test [1] and in test [2] was more than 501 nM each time.
Consider `CN1CC[C@@](O)(c2cc(-c3cccc(-c4ccc5c(c4)N(C)C(=O)CN5)c3)no2)C1=O` [Example 80, (R)-7-(3-(5-(3-Hydroxy-1-methyl-2-oxopyrrolidin-3-yl)isoxazol-3-yl)phenyl)-1-methyl-3,4-dihydroquinoxalin-2(1H)-one], for which the IC50 in test [1] and in test [2] was more than 501 nM in each case.
`COc1cc2c(cc1-c1cccc(-c3cc([C@]4(O)CCN(C)C4=O)on3)c1)COC2` [Example 81, (R)-3-Hydroxy-3-(3-(3-(6-methoxy-1,3-dihydroisobenzofuran-5-yl)phenyl)isoxazol-5-yl)-1-methylpyrrolidin-2-one]: the IC50 in test [1] and in test [2] was more than 501 nM in each case.
For the compound `CN1CC[C@@](O)(c2cc(-c3cccc(-c4cccc5c(=O)[nH]ccc45)c3)no2)C1=O` [Example 82, (R)-5-(3-(5-(3-Hydroxy-1-methyl-2-oxopyrrolidin-3-yl)isoxazol-3-yl)phenyl)isoquinolin-1 (2H)-one], the IC50 in test [1] and in test [2] was more than 501 nM each time.
`CN1CC[C@@](O)(c2cc(-c3cccc(-c4cc5[nH]ncc5cn4)c3)no2)C1=O` [Example 83, (R)-3-(3-(3-(1H-pyrazolo[4,3-c]pyridin-6-yl)phenyl)isoxazol-5-yl)-3-hydroxy-1-methylpyrrolidin-2-one]: the IC50 in test [1] and in test [2] was more than 501 nM throughout.
For the compound `Cc1n[nH]c2nc(-c3cccc(-c4cc([C@]5(O)CCN(C)C5=O)on4)c3)cc(C(N)=O)c12` [Example 84, (R)-6-(3-(5-(3-Hydroxy-1-methyl-2-oxopyrrolidin-3-yl)isoxazol-3-yl)phenyl)-3-methyl-1H-pyrazolo[3,4-b]pyridine-4-carboxamide], the 50% inhibitory concentration (IC50) in test [1] and in test [2] was more than 501 nM in each case.
Consider `CN1CC[C@@](O)(c2cc(-c3cccc(-c4cc(C5CC5)nc(C(N)=O)n4)c3)no2)C1=O` [Example 85, (R)-4-Cyclopropyl-6-(3-(5-(3-hydroxy-1-methyl-2-oxopyrrolidin-3-yl)isoxazol-3-yl)phenyl)pyrimidine-2-carboxamide], for which the IC50 in test [1] is less than 100 nM; in test [2] it was more than 501 nM.
On the same counts, the results for `CN1CC[C@@](O)(c2cc(-c3cccc(-c4cccc5cnc(N)nc45)c3)no2)C1=O` [Example 86, (R)-3-(3-(3-(2-Aminoquinazolin-8-yl)phenyl)isoxazol-5-yl)-3-hydroxy-1-methylpyrrolidin-2-one] are less than 100 nM and more than 501 nM.
On the same counts, the results for `COc1ccc(-c2cccc(-c3cc([C@]4(O)CCN(C)C4=O)on3)c2)nc1C(N)=O` [Example 87, (R)-6-(3-(5-(3-Hydroxy-1-methyl-2-oxopyrrolidin-3-yl)isoxazol-3-yl)phenyl)-3-methoxypicolinamide] are more than 501 nM and more than 501 nM.

The record behind these values is US20250282785A1, “PYRROLIDINONE DERIVATIVES AS INHIBITORS OF NF KAPPA B INDUCING KINASE” (priority 2022, published 2025).
